Assay results published in paper PMC9516332 (Frontiers in Oncology, 2022).
Read-outs that look alike come from different tables or passages of the source.

Key:
[1] = biological target: T1, panel of 255 wild-type kinases (Homo sapiens, UniProt Q9BZL6); assay: Kinase panel profiling at 1 µmol/L (MSA or IMAP), percentage inhibition; format: biochemical; details: read-out: %-inhibition at 1 µmol/L, PKD2
T1 sequence (Q9BZL6 1-878): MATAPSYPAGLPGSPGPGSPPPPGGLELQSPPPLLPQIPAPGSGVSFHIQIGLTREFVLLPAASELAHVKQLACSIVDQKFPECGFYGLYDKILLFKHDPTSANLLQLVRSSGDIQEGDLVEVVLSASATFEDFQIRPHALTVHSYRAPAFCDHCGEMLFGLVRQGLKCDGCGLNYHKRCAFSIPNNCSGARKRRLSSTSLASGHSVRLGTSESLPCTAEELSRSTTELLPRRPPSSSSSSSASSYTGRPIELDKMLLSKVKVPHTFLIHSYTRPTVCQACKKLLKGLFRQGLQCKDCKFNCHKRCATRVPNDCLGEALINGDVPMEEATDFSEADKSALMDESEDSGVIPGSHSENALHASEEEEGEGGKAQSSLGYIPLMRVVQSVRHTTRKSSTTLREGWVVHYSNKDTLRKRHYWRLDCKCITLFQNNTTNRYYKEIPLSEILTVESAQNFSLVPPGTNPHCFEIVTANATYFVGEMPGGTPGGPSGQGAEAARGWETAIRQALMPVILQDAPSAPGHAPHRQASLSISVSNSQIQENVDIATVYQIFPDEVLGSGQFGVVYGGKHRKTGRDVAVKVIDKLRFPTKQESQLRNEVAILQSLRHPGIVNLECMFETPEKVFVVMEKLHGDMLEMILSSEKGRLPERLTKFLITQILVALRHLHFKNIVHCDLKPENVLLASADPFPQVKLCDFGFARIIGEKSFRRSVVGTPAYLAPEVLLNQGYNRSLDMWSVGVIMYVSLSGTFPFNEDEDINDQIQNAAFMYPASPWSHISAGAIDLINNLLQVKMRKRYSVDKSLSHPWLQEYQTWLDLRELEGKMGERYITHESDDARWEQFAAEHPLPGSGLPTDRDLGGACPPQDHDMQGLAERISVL

AP-1060 (ETV6-NTRK3) = assay: Cell viability assay; details: read-out: IC50 in cell proliferation assay
134 cancer cell lines = assay: Cell viability assay (ATPlite, 72 hours), IC50 on cancer cell line panel

## CNC(=O)c1ccc(-c2cnc3ncc(Cc4ccc5ncccc5c4)n3n2)cc1F [capmatinib]
[1]
  inhibition at 1 µM: -7.47%
AP-1060 (ETV6-NTRK3)
  IC50: > 31.6 µM
134 cancer cell lines; HEC-6, read-out: IC50 in cell proliferation assay
  IC50: > 31.6 µM
134 cancer cell lines; Homo sapiens, 769-P, read-out: IC50 in cell proliferation assay
  IC50: > 31.6 µM
134 cancer cell lines; Homo sapiens, 786-0, read-out: IC50 in cell proliferation assay
  IC50: > 31.6 µM
134 cancer cell lines; Homo sapiens, A 172, read-out: IC50 in cell proliferation assay
  IC50: > 31.6 µM
134 cancer cell lines; Homo sapiens, A204, read-out: IC50 in cell proliferation assay
  IC50: > 31.6 µM
134 cancer cell lines; Homo sapiens, A498, read-out: IC50 in cell proliferation assay
  IC50: > 31.6 µM
134 cancer cell lines; Homo sapiens, A549, read-out: IC50 in cell proliferation assay
  IC50: > 31.6 µM
134 cancer cell lines; Homo sapiens, A704, read-out: IC50 in cell proliferation assay
  IC50: > 31.6 µM
134 cancer cell lines; Homo sapiens, A-375, read-out: IC50 in cell proliferation assay
  IC50: > 31.6 µM
134 cancer cell lines; Homo sapiens, A-427, read-out: IC50 in cell proliferation assay
  IC50: 29.6 µM
134 cancer cell lines; Homo sapiens, ACHN, read-out: IC50 in cell proliferation assay
  IC50: > 31.6 µM
134 cancer cell lines; Homo sapiens, AN3-CA, read-out: IC50 in cell proliferation assay
  IC50: > 31.6 µM
134 cancer cell lines; Homo sapiens, ASPC1, read-out: IC50 in cell proliferation assay
  IC50: > 31.6 µM
134 cancer cell lines; Homo sapiens, AU565, read-out: IC50 in cell proliferation assay
  IC50: 5.52 µM
134 cancer cell lines; Homo sapiens, BT-20, read-out: IC50 in cell proliferation assay
  IC50: > 31.6 µM
134 cancer cell lines; Homo sapiens, BT-474, read-out: IC50 in cell proliferation assay
  IC50: > 31.6 µM
134 cancer cell lines; Homo sapiens, BT-549, read-out: IC50 in cell proliferation assay
  IC50: > 31.6 µM
134 cancer cell lines; Homo sapiens, BXPC-3, read-out: IC50 in cell proliferation assay
  IC50: > 31.6 µM
134 cancer cell lines; Homo sapiens, C-33-A, read-out: IC50 in cell proliferation assay
  IC50: > 31.6 µM
134 cancer cell lines; Homo sapiens, CAL-27, read-out: IC50 in cell proliferation assay
  IC50: > 31.6 µM
134 cancer cell lines; Homo sapiens, CCF-STTG1, read-out: IC50 in cell proliferation assay
  IC50: > 31.6 µM
134 cancer cell lines; Homo sapiens, CCRF-CEM, read-out: IC50 in cell proliferation assay
  IC50: 28.3 µM
134 cancer cell lines; Homo sapiens, COLO 205, read-out: IC50 in cell proliferation assay
  IC50: > 31.6 µM
134 cancer cell lines; Homo sapiens, COLO-829, read-out: IC50 in cell proliferation assay
  IC50: > 31.6 µM
134 cancer cell lines; Homo sapiens, DLD-1, read-out: IC50 in cell proliferation assay
  IC50: > 31.6 µM
134 cancer cell lines; Homo sapiens, DU-145, read-out: IC50 in cell proliferation assay
  IC50: > 31.6 µM
134 cancer cell lines; Homo sapiens, DU-4475, read-out: IC50 in cell proliferation assay
  IC50: 21.4 µM
134 cancer cell lines; Homo sapiens, Daoy, read-out: IC50 in cell proliferation assay
  IC50: > 31.6 µM
134 cancer cell lines; Homo sapiens, DoTc2-4510, read-out: IC50 in cell proliferation assay
  IC50: > 31.6 µM
134 cancer cell lines; Homo sapiens, EOL1, read-out: IC50 in cell proliferation assay
  IC50: > 31.6 µM
134 cancer cell lines; Homo sapiens, FaDu, read-out: IC50 in cell proliferation assay
  IC50: > 31.6 µM
134 cancer cell lines; Homo sapiens, G-361, read-out: IC50 in cell proliferation assay
  IC50: > 31.6 µM
134 cancer cell lines; Homo sapiens, HCC827, read-out: IC50 in cell proliferation assay
  IC50: 8.39 µM
134 cancer cell lines; Homo sapiens, HCC4006, read-out: IC50 in cell proliferation assay
  IC50: > 31.6 µM
134 cancer cell lines; Homo sapiens, HCT-15, read-out: IC50 in cell proliferation assay
  IC50: > 31.6 µM
134 cancer cell lines; Homo sapiens, HCT-116, read-out: IC50 in cell proliferation assay
  IC50: > 31.6 µM
134 cancer cell lines; Homo sapiens, HEC-1, read-out: IC50 in cell proliferation assay
  IC50: > 31.6 µM
134 cancer cell lines; Homo sapiens, HEC-1B, read-out: IC50 in cell proliferation assay
  IC50: > 31.6 µM
134 cancer cell lines; Homo sapiens, HL-60, read-out: IC50 in cell proliferation assay
  IC50: > 31.6 µM
134 cancer cell lines; Homo sapiens, HT, read-out: IC50 in cell proliferation assay
  IC50: > 31.6 µM
134 cancer cell lines; Homo sapiens, HT-1080, read-out: IC50 in cell proliferation assay
  IC50: > 31.6 µM
134 cancer cell lines; Homo sapiens, Hs746T, read-out: IC50 in cell proliferation assay
  IC50: 0.00123 µM
134 cancer cell lines; Homo sapiens, Hs-578T, read-out: IC50 in cell proliferation assay
  IC50: > 31.6 µM
134 cancer cell lines; Homo sapiens, HuTu80, read-out: IC50 in cell proliferation assay
  IC50: > 31.6 µM
134 cancer cell lines; Homo sapiens, J82, read-out: IC50 in cell proliferation assay
  IC50: > 31.6 µM
134 cancer cell lines; Homo sapiens, Jurkat E6.1, read-out: IC50 in cell proliferation assay
  IC50: > 31.6 µM
134 cancer cell lines; Homo sapiens, K562, read-out: IC50 in cell proliferation assay
  IC50: > 31.6 µM
134 cancer cell lines; Homo sapiens, KATO III, read-out: IC50 in cell proliferation assay
  IC50: > 31.6 µM
134 cancer cell lines; Homo sapiens, KG-1, read-out: IC50 in cell proliferation assay
  IC50: > 31.6 µM
134 cancer cell lines; Homo sapiens, KLE, read-out: IC50 in cell proliferation assay
  IC50: > 31.6 µM
134 cancer cell lines; Homo sapiens, KMS-11, read-out: IC50 in cell proliferation assay
  IC50: 9.3 µM
134 cancer cell lines; Homo sapiens, KU812, read-out: IC50 in cell proliferation assay
  IC50: > 31.6 µM
134 cancer cell lines; Homo sapiens, Kasumi 1, read-out: IC50 in cell proliferation assay
  IC50: 25 µM
134 cancer cell lines; Homo sapiens, LC-2-ad, read-out: IC50 in cell proliferation assay
  IC50: > 31.6 µM
134 cancer cell lines; Homo sapiens, LNCaP-Clone-FGC, read-out: IC50 in cell proliferation assay
  IC50: > 31.6 µM
134 cancer cell lines; Homo sapiens, LS174T, read-out: IC50 in cell proliferation assay
  IC50: > 31.6 µM
